Three compounds from patent publication US4861793A, “D-nor-7-ergoline derivatives having anti-Parkinson and antipsychosis activity and pharmaceutical compositions containing them” (Farmitalia Carlo Erba, S.p.A, priority 1986, dated 1989) can be followed below.

One experiment deals with T1, D1 receptors (Rattus norvegicus, UniProt P18901).
T1 construct: from tissue
Kind of experiment: affinity to D1 receptors (test described by Billard et al., Life Science, p. 35 (1985)). The following applies: D1 receptor; IC means inhibitory concentration. In kind it is binding. An excerpt:
(§1) The activity of the compounds of the present invention has been confirmed by their affinity to α2 and D1 receptors, according to the tests described by Djop, J. Neurochemistry, 41, p. 710 (1983) and by Billard et al., Life Science, p. 35 (1985).

A further experiment addresses T2, α2 receptors (Rattus norvegicus, UniProt P22909).
T2 construct: from tissue
T2 sequence (P22909 1-465): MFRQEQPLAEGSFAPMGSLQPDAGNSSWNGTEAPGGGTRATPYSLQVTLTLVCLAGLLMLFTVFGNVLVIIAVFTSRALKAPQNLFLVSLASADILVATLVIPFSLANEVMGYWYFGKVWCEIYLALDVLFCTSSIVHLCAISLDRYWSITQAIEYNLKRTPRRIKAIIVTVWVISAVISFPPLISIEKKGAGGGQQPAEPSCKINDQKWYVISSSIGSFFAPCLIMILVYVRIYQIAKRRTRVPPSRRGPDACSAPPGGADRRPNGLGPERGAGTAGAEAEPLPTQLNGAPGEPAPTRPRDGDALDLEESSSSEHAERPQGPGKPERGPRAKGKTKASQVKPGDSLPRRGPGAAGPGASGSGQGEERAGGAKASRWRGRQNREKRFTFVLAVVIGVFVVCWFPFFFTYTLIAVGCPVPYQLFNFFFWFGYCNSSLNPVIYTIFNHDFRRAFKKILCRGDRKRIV
Kind of experiment: affinity to α2 receptors (test described by Djop, J. Neurochemistry, 41, p. 710 (1983)). In kind it is binding. Conditions: α2 receptor; IC means inhibitory concentration.
Excerpt: as §1

T1 sequence (P18901 whole entry): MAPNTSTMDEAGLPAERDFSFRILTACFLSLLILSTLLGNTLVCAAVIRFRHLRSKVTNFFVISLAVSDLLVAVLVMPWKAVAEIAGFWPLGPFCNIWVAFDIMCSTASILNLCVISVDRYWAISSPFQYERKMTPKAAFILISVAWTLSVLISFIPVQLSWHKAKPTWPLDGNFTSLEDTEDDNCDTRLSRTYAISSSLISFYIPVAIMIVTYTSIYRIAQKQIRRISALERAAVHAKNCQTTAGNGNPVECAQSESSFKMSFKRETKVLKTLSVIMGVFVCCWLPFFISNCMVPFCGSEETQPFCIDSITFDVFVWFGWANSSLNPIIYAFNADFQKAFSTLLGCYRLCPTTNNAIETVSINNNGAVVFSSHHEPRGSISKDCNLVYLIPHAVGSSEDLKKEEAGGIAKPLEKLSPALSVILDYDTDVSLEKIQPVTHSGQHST

On to `CCNC(=O)N(CCCN(C)C)C(=O)CC1CC2c3cccc4[nH]cc(c34)CC2N1C` [Example 6, D-nor-6-methyl-7[N-(3-dimethylaminopropyl)-N-(ethylcarbamoyl)]-carbamoylmethyl-ergoline], for which the IC50 on D1 receptors worked out at 0.9 nM; against α2 receptors, 0.4 nM.
For the compound `CN1C(CCNC(=O)OCc2ccccc2)CC2c3cccc4[nH]cc(c34)CC21` [Example 8, D-nor-6-methyl-7-benzyloxycarbamoylethyl-ergoline], the IC50 stood at 0.7 nM on D1 receptors and 0.04 nM against α2 receptors.
On the same counts, the results for `CN1C(CCN2CC(=O)NC2=O)CC2c3cccc4[nH]cc(c34)CC21` [Example 10, D-nor-6-methyl-7-(2,4-dioxo-1-imidazolidinyl-ethyl)-ergoline] are 0.4 nM and 0.05 nM.
